Laboratory results reported in US7326680B1, “Uterine contraction inhibitors” (Shionogi & Co., Ltd., priority 1999, dated 2008).
Bridge positions count the residues as written; N and C are the ends. Ends that are not written are not given here.

How the values were obtained:
uterine strips = assay: Stimulation of contraction of uterine strips from rats not treated with estrogen; type: cell-based, rat; settings: 1 nM oxytocin, 1 μM PGF2α or 10 nM bradykinin
Method: (§1) In another experiment, rats without injection of 17β-estradiol were used. The effect of 100 nM AM on uterine contraction induced by 10 nM bradykinin, 1 nM oxytocin, or 1 μM PGF2α was tested in the presence or absence of 1 μM AM[22-52] or 1 μM CGRP[8-37].

[1] = system: bradykinin-induced contraction of rat uterine strips; assay: Bradykinin-induced contraction of isolated rat uterine strips; type: cell-based; settings: 10 nM bradykinin; for effect on the inhibitory effect of AM on bradykinin-induced contraction: preliminary addition of 1 μM antagonist
Method: In a manner similar to that of Example 1, uterine strips were prepared and attached to an isotonic transducer in a modified KRB solution. At the time when 10 nM bradykinin (Peptide Institute, Inc.) was added to the modified KRB solution, myometrial contraction was continuously measured. 20 minutes after the addition of bradykinin, 100 nM AM or distilled water was further added.
as §1
(§2) In all measurements, the uterine strips were eventually contracted due to 45 mM KCl depolarization to confirm responses of the myometrium. The results are shown in FIGS. 6(a) to 6(f) and FIGS. 7(a) to 7(e).

[2] = system: spontaneous myometrial contraction of rat uterine strips; assay: Spontaneous contraction of isolated uterine strips from 17β-estradiol-treated female rats (isotonic transducer); type: cell-based; settings: for effect on the contraction inhibitory effect of 1 to 100 nM AM (spontaneous contraction): 1 μM preliminary addition; for effect of the antagonist per se on spontaneous contraction: 1 μM, preliminary addition (15 min preincubation)
Method: 1 μg of 17β-estradiol in 0.2 ml of 30% ethanol was subcutaneously injected to 10 to 12 week old female rats.
On the following day, the rats were sacrificed by hammering their heads. Thereafter, the rats were decapitated, followed by exsanguination. The uteri were isolated from the rats. Each isolated uterus was cut into four fragments a to d (FIG. 1(A)). Portions of each strip to which blood vessels were attached were cut off, thereby obtaining uterine strips (FIG. 1(B)).
The effect of AM on the rat uterus was examined by measuring contractions of the uterine strips using an isotonic transducer TD-112S (manufactured by Nippon Kohden Corporation) where the tension was 1 g.
While the uterine strip was immersed in 30 ml of a modified Krebs-Ringer bicarbonate (KRB) solution with glucose) (hereinafter simply referred to as “modified KRB solution”), the uterine strip was attached to the isotonic transducer. The composition of the modified KRB solution is as follows: 122 mM NaCl, 26 mM NaHCO3, 5 mM KCl, 1 mM MgSO4.7H2O, 0.03 mM EDTA-2Na, 2.4 mM CaCl2, and 11 mM glucose; pH 7.4).
(§3) Myometrial contraction was continuously measured. After spontaneous rhythm of the uterine muscle was confirmed to be constant, 30 μl of 10^−4 M AM (experimental sample) or distilled water (control sample) was added to the respective modified KRB solution with glucose, where the concentration of AM was 100 nM. 30 minutes after the addition of AM or distilled water, 300 μl of 4.5 M KCl was added to make a KCl concentration of 45 mM.
In a manner similar to that of Example 1, uterine strips were prepared, and attached to an isotonic transducer in a modified KRB solution. Myometrial contraction was continuously measured. After it was confirmed that the spontaneous rhythm of uterine muscle became constant, 30 μl of 1×10^−6, 2×10^−6, 7×10^−6, 2×10^−5, or 7×10^−5 M AM (experimental samples), or distilled water (control sample) was added to the modified KRB solution at time 0 min (initial addition), 5 min later, 12 min later, 22 min later, and 32 min later, where AM concentrations were 1, 3, 10, 30, and 100 nM, respectively. Thereafter, after 45 minutes from the initial addition of AM or distilled water, 300 μl of 4.5 M KCl was added to the solution to be a KCl concentration of 45 mM.
8 to 12 weeks old female rats were used to prepare uterine strips in a manner similar to that of Example 1.
Thereafter, the uterine strip was placed in a tissue chamber filled with 30 ml of a modified KRB solution with aeration of 95% O2/5% CO2 at 37° C. to measure contraction of the uterine strip in a manner similar to that of Example 1. After 40 minutes of equilibrium, the uterine strip was preincubated for 15 minutes in the presence or absence of 1 μM AM[22-52] or 1 μM CGRP[8-37]. Thereafter, AM was added to the modified KRB solution in the tissue chamber to gradually increase the AM concentration from 1 nM to 100 nM, exposing the uterine strip to AM.

[3] = system: galanin-induced tonic contraction of the uterus; settings: Reference 7; cited from earlier work
[4] = system: oxytocin-induced contraction of rat uterine strips; assay: Oxytocin-induced contraction of isolated rat uterine strips; type: cell-based; settings: 100 nM AM, 1 nM oxytocin, rats not treated with estrogen
Method: as §1, with “CGRP[8-37]. In all measurements, the uterine strips were eventually contracted due to 45 mM KCl depolarization to confirm responses of the myometrium. The results are shown in FIGS. 6(a) to 6(f) and FIGS. 7(a) to 7(e).” for “CGRP[8-37].”

[5] = system: muscle contraction due to activation of voltage-dependent Ca channels (45 mM KCl); assay: 45 mM KCl depolarization-induced contraction of rat uterine strips; type: cell-based; settings: 100 nM AM, KCl added 30 min after AM
Method: as §3, §2

[6] = system: PGF2α-induced contraction of rat uterine strips; assay: PGF2α-induced contraction of isolated rat uterine strips; type: cell-based; settings: 100 nM AM, 1 μM PGF2α, rats not treated with estrogen
Method: as §1, with “CGRP[8-37]. In all measurements, the uterine strips were eventually contracted due to 45 mM KCl depolarization to confirm responses of the myometrium. The results are shown in FIGS. 6(a) to 6(f) and FIGS. 7(a) to 7(e).” for “CGRP[8-37].”

CC[C@H](C)[C@@H]1NC(=O)[C@H](Cc2ccc(O)cc2)NC(=O)[C@@H](N)CSSC[C@@H](C(=O)N2CCC[C@H]2C(=O)N[C@@H](CC(C)C)C(=O)NCC(N)=O)NC(=O)[C@H](CC(N)=O)NC(=O)[C@H](CCC(N)=O)NC1=O [oxytocin]
stimulation of uterine contraction (uterine strips): significantly stimulated contraction

AM[22-52]: an antagonist for an AM receptor (TVQKLAHQIYQFTDKDKDNVAPRSKISPQGY; ends and bridges not checked; UniProt P35318 116-146, looked up, fragment) [reference compound]
effect on the inhibitory effect of AM on bradykinin-induced contraction ([1]; 100 nM AM): eliminated | effect on the contraction inhibitory effect of 1 to 100 nM AM (spontaneous contraction) [2]: substantially completely prevents | effect of the antagonist per se on spontaneous contraction [2]: had no effect

CGRP[8-37]: an antagonist for a CGRP receptor (VTHRLAGLLSRSGGVVKNNFVPTNVGSKAF; ends and bridges not checked; UniProt P06881 90-119, looked up, fragment) [reference compound]
effect on the inhibitory effect of AM on bradykinin-induced contraction ([1]; 100 nM AM): eliminated | effect on the action of AM on galanin-induced tonic contraction [3]: eliminated | effect on the contraction inhibitory effect of 1 to 100 nM AM (spontaneous contraction) [2]: substantially completely prevents | effect of the antagonist per se on spontaneous contraction [2]: had no effect

YRQSMNQGSRSTGCRFGTCTMQKLAHQIYQFTDKDKDGMAPRNKISPQGY-NH2 (disulfide 14-19; C-terminus assumed) [AM]
effect on contraction induced by oxytocin [4]: almost no effect | effect on contraction caused by 45 mM KCl [5]: does not affect | effect on contraction induced by PGF2α [6]: almost no effect | effect on bradykinin-induced contraction ([1]; 100 nM AM added 20 min later, estradiol-treated rats, Example 3): inhibited | effect on bradykinin-induced contraction ([1]; 100 nM AM, rats not treated with estrogen, Example 4): completely blocked | concentration at which galanin-induced tonic contraction of the uterus was inhibited [3]: ≥ 5 µM | effect on spontaneous myometrial contraction ([2]; 100 nM AM, Example 1, FIGS. 2(c), 2(d)): significantly inhibited | effect on spontaneous myometrial contraction, cumulative concentrations ([2]; 1, 3, 10, 30, 100 nM AM, Example 2, FIGS. 3(a), 3(b)): inhibited by the addition of AM in a concentration-dependent manner | IC50 ([2]; AM 1 to 100 nM, estradiol-treated rats, Example 4, read-out: IC50 of inhibition of spontaneous contraction): 23 nM | reversibility of the inhibitory effect on spontaneous contraction ([2]; washing out and exchanging the modified KRB solution after 100 nM AM): could be reversed

prostaglandin F2α [PGF2α]
stimulation of uterine contraction (uterine strips): significantly stimulated contraction
